# Measured values published in paper PMC3479146, “Flanking Residues Are Central to DO11.10 T Cell Hybridoma Stimulation by Ovalbumin 323–339” (PLoS ONE, 2012).
# Several values for one entry are separate records, joined by “and”; a condition that tells them apart may be missing. Equal values may be shown once. Read-outs that look alike come from different tables or passages of the source. Marks after values point to notes of the source that are not given here. Where no end group is shown, it is not given here.
# Tests used:
# I-A^d = settings: cited from earlier work
# Source text: Table 1 Alternate registers within OVA 323–339. | column: Dissociation rate constants ^a / (k d, s^−1) || Peptide-MHC complex stability correlates broadly with immunogenicity, [21], as stable epitopes are more prevalent on the cell surface, and subsequently more likely to be recognized by responding T cells. Stability is commonly approximated as the dissociation rate of fluorescently labeled peptide from soluble MHC, although this approach can be complicated by highly overlapping registers. […] Supporting the thermodynamic stability of register one, a complex between the 323–339 peptide and I-A^d was cr ... || The HEL epitope consisting of residues 11 through 25 (HEL11-25) has been characterized as a weak MHC binder when presented by I-A^d, with a short half-life of approximately six hours that presumably results from a poorly accommodated arginine side chain in the P1 pocket. We compared the activities of wild type HEL11-25 to a variant in which the native P-4 to P-2 sequence was replaced with OVA-specific residues (QAV13-25) and a control in which these three residues were adjusted to GGS (GGS13-25). Since these changes lengthen the HEL11-25 peptide by a single amino acid, a control in whic ...
# [1] = system: HEL11–25 responsive T cell hybridoma; settings: synthetic HEL peptide; A20 + HEL11-25 hybridoma cells, 24 h; IL-2 ELISA; 3-parameter curve fits of aggregate data from at least two experiments
# Description: We compared the activities of wild type HEL11-25 to a variant in which the native P-4 to P-2 sequence was replaced with OVA-specific residues (QAV13-25) and a control in which these three residues were adjusted to GGS (GGS13-25). Since these changes lengthen the HEL11-25 peptide by a single amino acid, a control in which the HEL11-25 peptide was appended with an N-terminal glycine in position P-3 (G11-25) was also analyzed.
# Each well of a 96-well plate was seeded with 15,000 A20 cells, 15,000 T cell hydridoma cells and peptide, malE chimera protein or control peptide/protein per well in DMEM media without L-glutamine, except where noted. After a 24-hour incubation at 37°C, 5% CO2, supernatant was transferred to a new plate and stored at −80°C prior to IL-2 quantification assays. All peptide/protein doses were performed in triplicate wells and all experiments replicated at least twice.
# For malE chimeras and control protein experiments, the relevant protein was thawed, concentrated using 30K molecular weight cut-off centrifugal filter units (Millipore UFC903024) and filter-sterilized. Proteins were then quantified via absorbance at 280 nm using a predicted extinction coefficient and molecular weight, diluted to equal concentrations, the concentration confirmed and serially diluted in 96-well plates. […] Proteins were pre-incubated for four hours with antigen presenting cells (A20 or 3A5) cells prior to a 24-hour incubation with T cell hybridomas. The IL-2 concentration in the supernatant was quantified using a matched pair ELISA quantified with an IL-2 standard as described (BD #555148). All experiments were performed at least twice, and all wells were measured in triplicate. Data was analyzed with Graphpad Prism 5 (La Jolla, CA).
# DO11.10 T cell hybridoma [2] = test: DO11.10 hybridoma IL-2 secretion with A20 antigen presenting cells and exogenous OVA peptide variants; format: cell-based, murine; settings: synthetic peptide; 15,000 A20 + 15,000 DO11.10 cells per well, 24 h, 37°C, DMEM without L-glutamine; IL-2 by matched pair ELISA; 3-parameter curve fits of aggregate data from at least two experiments
# Description: Two previous reports described anchor substitutions to stabilize register four. […] To assess the relative success of these attempts, we synthesized both variants, along with an N-terminally truncated version of the Robertson peptide (328–339 EIVS; Table 2) to remove the effects of flanking residues which we hypothesized would promote register masking. To assess peptide activity, DO11.10 hybridomas were incubated for 24 hours with I-A^d+ A20 lymphoma cells in the presence of peptide, and supernatant was subsequently assessed for the presence IL-2 by a matched pair ELISA as a measure of T cell activation. […]
# (§1) Each well of a 96-well plate was seeded with 15,000 A20 cells, 15,000 T cell hydridoma cells and peptide, malE chimera protein or control peptide/protein per well in DMEM media without L-glutamine, except where noted. After a 24-hour incubation at 37°C, 5% CO2, supernatant was transferred to a new plate and stored at −80°C prior to IL-2 quantification assays. […]
# For malE chimeras and control protein experiments, the relevant protein was thawed, concentrated using 30K molecular weight cut-off centrifugal filter units (Millipore UFC903024) and filter-sterilized. Proteins were then quantified via absorbance at 280 nm using a predicted extinction coefficient and molecular weight, diluted to equal concentrations, the concentration confirmed and serially diluted in 96-well plates. […]
# DO11.10 T cell hybridoma [3] = test: DO11.10 hybridoma IL-2 secretion with A20 cells and malE chimeras containing OVA epitope variants; format: cell-based, murine; settings: malE chimera protein pre-incubated 4 h with A20 cells, then 24 h with DO11.10, IL-2 ELISA, 3-parameter curve fits of aggregate data from at least two experiments
# Source text: Peptide sequences were introduced into the exposed loop in place of residues 133–140 as first described by Martineau et al., with a glycine-serine extension (GSGSG) appended to the N-terminus of inserted epitopes to increase solubility (Figure 3A, Table 4). The activity of the N-terminally truncated peptides in MBP (325–337, 327–337, 328–337) indicates a maintained preference for wild type flanking residues as was previously observed with synthetic peptides (Figure 3A, Table 4). […] The increased activity of variants retaining the wild type P-3 and P-4 residues of register four during intracellular processing again supports their direct role in mediating the peptide and MHC interaction. […]
# as §1
# For malE chimeras and control protein experiments, the relevant protein was thawed, concentrated using 30K molecular weight cut-off centrifugal filter units (Millipore UFC903024) and filter-sterilized. […] The IL-2 concentration in the supernatant was quantified using a matched pair ELISA quantified with an IL-2 standard as described (BD #555148). […]
# [4] = apparent first order dissociation constant of presumed isolated register from purified I-A^d, single exponential fits to monophasic dissociation data
substance,measurement,setting,value
"323–335 Q325A: literature OVA 323–335 peptide with alanine at position 325, used for register 1 dissociation","Dissociation rate constants (k d, s^−1)",I-A^d; [4],2.3e-06 s⁻¹
325–336: literature OVA 325–336 peptide used for register 3 dissociation,"Dissociation rate constants (k d, s^−1)",I-A^d; [4],2.6e-06 s⁻¹
"327–339 V327K: literature OVA 327–339 peptide with lysine at position 327, used for register 4 dissociation","Dissociation rate constants (k d, s^−1)","I-A^d; apparent first order dissociation constant from purified I-A^d, back-calculated from reported half-life of dissociation",0.0006 s⁻¹
same,half-life of peptide dissociation from I-A^d,"I-A^d; register four core truncated at P-2, P-2 valine altered to lysine",around twenty
AMKRHGLDNYRGYSL [HEL11-25],Max response (ng/ml IL-2),[1],0.7 ng/ml IL-2
same,half-life when presented by I-A^d,I-A^d,approximately six
GAMKRHGLDNYRGYSL [Peptide G11-25],Max response (ng/ml IL-2),[1],0.7 ng/ml IL-2
GGSKRHGLDNYRGYSL [GGS13-25],Max response (ng/ml IL-2),[1],0.5 ^* ng/ml IL-2
ISQAVHAAHAEINEAGR [323–339],EC50,DO11.10 T cell hybridoma [2],1.6 µM
MalE chimera 325–337: maltose binding protein with OVA 325–337 replacing malE residues 133–140,Max response (ng/ml IL-2),DO11.10 T cell hybridoma [3],1.1 ^* ng/ml IL-2
same,EC50,DO11.10 T cell hybridoma [3]; read-out: EC50 (µM peptide),18 µM
QAVKRHGLDNYRGYSL [QAV13-25],Max response (ng/ml IL-2),[1],1.5 ng/ml IL-2 and 1.5 ^* ng/ml IL-2
